Measured values: ChEMBL document CHEMBL3045925 (Med Chem Res, 2013)
In brackets after ≈: the same amount, converted by molar mass. Activity calls are given as the source filed them. The calls are words filed in the database; no cut-off is given here.

Columns and labels:
Shigella flexneri = assay: Antibacterial activity against Shigella flexneri MTCC 1457 assessed as growth inhibition after 24 hr by two-fold serial dilution method; format: functional; conditions: MTCC 1457, 24 h
Bacillus subtilis = assay: Antibacterial activity against Bacillus subtilis MTCC 441 assessed as growth inhibition after 24 hr by two-fold serial dilution method; format: functional; conditions: MTCC 441, 24 h
[1] = tested on: Staphylococcus epidermidis; assay: Antibacterial activity against Staphylococcus epidermidis MTCC 3615 assessed as growth inhibition after 24 hr by two-fold serial dilution method; format: functional; conditions: MTCC 3615, 24 h
Staphylococcus aureus [2] = assay: Antibacterial activity against Staphylococcus aureus MTCC 96 assessed as growth inhibition after 24 hr by two-fold serial dilution method; format: functional; conditions: MTCC 96, 24 h
Micrococcus luteus = assay: Antibacterial activity against Micrococcus luteus assessed as growth inhibition after 24 hr by two-fold serial dilution method; format: functional
Escherichia coli [3] = assay: Antibacterial activity against Escherichia coli ESBL 3984 clinical isolate assessed as growth inhibition after 24 hr by two-fold serial dilution method; format: functional; conditions: ESBL 3984, 24 h
Escherichia coli [4] = assay: Antibacterial activity against Escherichia coli ESBL 3904 clinical isolate assessed as growth inhibition after 24 hr by two-fold serial dilution method; format: functional; conditions: ESBL 3904, 24 h
Klebsiella pneumoniae [5] = assay: Antibacterial activity against Klebsiella pneumoniae ESBL 3971 clinical isolate assessed as growth inhibition after 24 hr by two-fold serial dilution method; format: functional; conditions: ESBL 3971, 24 h
Klebsiella pneumoniae [6] = assay: Antibacterial activity against Klebsiella pneumoniae ESBL 3967 clinical isolate assessed as growth inhibition after 24 hr by two-fold serial dilution method; format: functional; conditions: ESBL 3967, 24 h
Klebsiella pneumoniae [7] = assay: Antibacterial activity against Klebsiella pneumoniae ESBL 75799 clinical isolate assessed as growth inhibition after 24 hr by two-fold serial dilution method; format: functional; conditions: ESBL 75799, 24 h
Klebsiella pneumoniae [8] = assay: Antibacterial activity against Klebsiella pneumoniae ESBL 3894 clinical isolate assessed as growth inhibition after 24 hr by two-fold serial dilution method; format: functional; conditions: ESBL 3894, 24 h
Staphylococcus aureus [9] = assay: Antibacterial activity against methicillin-resistant Staphylococcus aureus clinical isolate assessed as growth inhibition after 24 hr by two-fold serial dilution method; format: functional
Salmonella typhimurium = assay: Antibacterial activity against Salmonella enterica subsp. enterica serovar Typhimurium MTCC 1251 assessed as growth inhibition after 24 hr by two-fold serial dilution method; format: functional; conditions: MTCC 1251, 24 h
Pseudomonas aeruginosa = assay: Antibacterial activity against Pseudomonas aeruginosa MTCC 741 assessed as growth inhibition after 24 hr by two-fold serial dilution method; format: functional; conditions: MTCC 741, 24 h
[10] = tested on: Salmonella enterica subsp. enterica serovar Paratyphi B; assay: Antibacterial activity against Salmonella enterica subsp. enterica serovar Paratyphi B assessed as growth inhibition after 24 hr by two-fold serial dilution method; format: functional
Scopulariopsis = assay: Antifungal activity against Scopulariopsis sp. 101/01 assessed as growth inhibition after 48 to 72 hr by two-fold serial dilution method; format: functional
[11] = tested on: Trichophyton mentagrophytes; assay: Antifungal activity against Trichophyton mentagrophytes 66/01 assessed as growth inhibition after 48 to 72 hr by two-fold serial dilution method; format: functional
Trichophyton rubrum = assay: Antifungal activity against Trichophyton rubrum 57/01 assessed as growth inhibition after 48 to 72 hr by two-fold serial dilution method; format: functional
Botrytis cinerea = assay: Antifungal activity against Botryotinia fuckeliana assessed as growth inhibition after 48 to 72 hr by two-fold serial dilution method; format: functional
Candida albicans = assay: Antifungal activity against Candida albicans MTCC 227 assessed as growth inhibition after 48 to 72 hr by two-fold serial dilution method; format: functional
Malassezia pachydermatis = assay: Antifungal activity against Malassezia pachydermatis assessed as growth inhibition after 48 to 72 hr by two-fold serial dilution method; format: functional
Aspergillus flavus = assay: Antifungal activity against Aspergillus flavus assessed as growth inhibition after 48 to 72 hr by two-fold serial dilution method; format: functional
[12] = tested on: Radical scavenging activity; assay: Antioxidant activity assessed as DPPH free radical scavenging activity at 125 ug/mL after 30 min by spectrophotometric analysis; format: functional
COLO 320 [13] = assay: Cytotoxicity against Homo sapiens (human) COLO320 cells by MTT assay
[14] = Antioxidant activity assessed as reduction of Cu2+ to Cu+ after 30 min by spectrophotometric analysis; format: functional
COLO 320 [15] = assay: Cytotoxicity against Homo sapiens (human) COLO320 cells at 10 ug/mL by MTT assay; format: functional
COLO 320 [16] = assay: Cytotoxicity against Homo sapiens (human) COLO320 cells at 50 ug/mL by MTT assay; format: functional
COLO 320 [17] = assay: Cytotoxicity against Homo sapiens (human) COLO320 cells at 25 ug/mL by MTT assay; format: functional
COLO 320 [18] = assay: Cytotoxicity against Homo sapiens (human) COLO320 cells at 100 ug/mL by MTT assay; format: functional
COLO 320 [19] = assay: Cytotoxicity against Homo sapiens (human) COLO320 cells at 200 ug/mL by MTT assay; format: functional
[20] = Antioxidant activity assessed as reduction of Fe3+ to Fe2+ measured Fe2+ equivalent per gram dry mass after 4 min by spectrophotometric analysis; format: functional
[21] = tested on: Radical scavenging activity; assay: Antioxidant activity assessed as DPPH free radical scavenging activity at 1000 ug/mL after 30 min by spectrophotometric analysis; format: functional
[22] = tested on: Radical scavenging activity; assay: Antioxidant activity assessed as DPPH free radical scavenging activity at 500 ug/mL after 30 min by spectrophotometric analysis; format: functional
[23] = tested on: Radical scavenging activity; assay: Antioxidant activity assessed as DPPH free radical scavenging activity at 250 ug/mL after 30 min by spectrophotometric analysis; format: functional
[24] = Antioxidant activity assessed as reduction of Cu2+ to Cu+ at 125 to 1000 ug/mL after 30 min by spectrophotometric analysis; format: functional

Question: With `CN[C@@H]1[C@H](O[C@H]2[C@H](O[C@H]3[C@H](O)[C@@H](O)[C@H](N=C(N)N)[C@@H](O)[C@@H]3N=C(N)N)O[C@@H](C)[C@]2(O)C=O)O[C@@H](CO)[C@H](O)[C@H]1O` [STREPTOMYCIN] as the compound, how does the MIC (Shigella flexneri) read?
Answer: 6.25 µg/mL (≈ 10.7 µM)

Question: And the MIC (Bacillus subtilis)?
Answer: 25 µg/mL (≈ 43 µM)

Question: What about the MIC [1] of the same compound?
Answer: 25 µg/mL (≈ 43 µM)

Question: And the MIC (Staphylococcus aureus [2])?
Answer: 6.25 µg/mL (≈ 10.7 µM)

Question: What about the MIC (Micrococcus luteus) of the same compound?
Answer: 6.25 µg/mL (≈ 10.7 µM)

Question: What about the MIC (Escherichia coli [3]) of the same compound?
Answer: 25 µg/mL (≈ 43 µM)

Question: And the MIC (Escherichia coli [4])?
Answer: 25 µg/mL (≈ 43 µM)

Question: What about the MIC (Klebsiella pneumoniae [5]) of the same compound?
Answer: 6.25 µg/mL (≈ 10.7 µM)

Question: What about the MIC (Klebsiella pneumoniae [6]) of the same compound?
Answer: 25 µg/mL (≈ 43 µM)

Question: And the MIC (Klebsiella pneumoniae [7])?
Answer: 25 µg/mL (≈ 43 µM)

Question: What about the MIC (Klebsiella pneumoniae [8]) of the same compound?
Answer: 6.25 µg/mL (≈ 10.7 µM)

Question: What about the MIC (Staphylococcus aureus [9]) of the same compound?
Answer: 6.25 µg/mL (≈ 10.7 µM)

Question: And the MIC (Salmonella typhimurium)?
Answer: 30 µg/mL (≈ 51.6 µM)

Question: What about the MIC (Pseudomonas aeruginosa) of the same compound?
Answer: 25 µg/mL (≈ 43 µM)

Question: And the MIC [10]?
Answer: inactive

Question: What does the source list for `CC(=O)N1CCN(c2ccc(OCC3COC(Cn4ccnc4)(c4ccc(Cl)cc4Cl)O3)cc2)CC1` (configuration not stated) [KETOCONAZOLE]?
Answer: MIC (Scopulariopsis): < 12.5 µg/mL; MIC [11]: < 12.5 µg/mL; MIC (Trichophyton rubrum): < 12.5 µg/mL; MIC (Botrytis cinerea): < 12.5 µg/mL; MIC (Candida albicans): 25 µg/mL (≈ 47 µM); MIC (Malassezia pachydermatis): 12.5 µg/mL (≈ 23.5 µM); MIC (Aspergillus flavus): < 12.5 µg/mL

Question: For `COc1cc(/C=C/C(=O)NCCCCNC(=O)/C=C/c2ccc(O)c(OC)c2)ccc1O` [TERRESTRIBISAMIDE], which MIC (Shigella flexneri) is on record?
Answer: > 200 µg/mL

Question: And the MIC (Bacillus subtilis)?
Answer: 200 µg/mL (≈ 454 µM)

Question: What about the MIC [1] of the same compound?
Answer: 200 µg/mL (≈ 454 µM)

Question: What about the MIC (Staphylococcus aureus [2]) of the same compound?
Answer: > 200 µg/mL

Question: And the MIC (Micrococcus luteus)?
Answer: 200 µg/mL (≈ 454 µM)

Question: And the MIC (Scopulariopsis)?
Answer: > 200 µg/mL

Question: What about the MIC [11] of the same compound?
Answer: > 200 µg/mL

Question: What about the MIC (Trichophyton rubrum) of the same compound?
Answer: > 200 µg/mL

Question: And the MIC (Botrytis cinerea)?
Answer: > 200 µg/mL

Question: And the MIC (Candida albicans)?
Answer: 200 µg/mL (≈ 454 µM)

Question: And the Activity [12]?
Answer: 40.2%

Question: What about the MIC (Escherichia coli [3]) of the same compound?
Answer: 200 µg/mL (≈ 454 µM)

Question: What about the MIC (Escherichia coli [4]) of the same compound?
Answer: 200 µg/mL (≈ 454 µM)

Question: What about the MIC (Klebsiella pneumoniae [5]) of the same compound?
Answer: > 200 µg/mL

Question: What about the MIC (Klebsiella pneumoniae [6]) of the same compound?
Answer: > 200 µg/mL

Question: And the MIC (Klebsiella pneumoniae [7])?
Answer: > 200 µg/mL

Question: And the MIC (Klebsiella pneumoniae [8])?
Answer: > 200 µg/mL

Question: What about the MIC (Staphylococcus aureus [9]) of the same compound?
Answer: > 200 µg/mL

Question: And the MIC (Salmonella typhimurium)?
Answer: > 200 µg/mL

Question: What about the MIC (Pseudomonas aeruginosa) of the same compound?
Answer: > 200 µg/mL

Question: And the MIC [10]?
Answer: > 200 µg/mL

Question: And the IC50 (COLO 320 [13])?
Answer: 50 µg/mL (≈ 114 µM)

Question: What about the Activity [14] of the same compound?
Answer: Dose-dependent effect

Question: And the Activity (COLO 320 [15])?
Answer: 9.655%

Question: What about the Activity (COLO 320 [16]) of the same compound?
Answer: 51.195%

Question: And the Activity (COLO 320 [17])?
Answer: 21.609%

Question: What about the Activity (COLO 320 [18]) of the same compound?
Answer: 64.827%

Question: And the Activity (COLO 320 [19])?
Answer: 83.218%

Question: And the Activity [20]?
Answer: 0.808 mMequiv

Question: And the Activity [21]?
Answer: 88.3%

Question: And the Activity [22]?
Answer: 84.6%

Question: What about the Activity [23] of the same compound?
Answer: 68.3%

Question: What about the MIC (Malassezia pachydermatis) of the same compound?
Answer: 200 µg/mL (≈ 454 µM)

Question: What about the MIC (Aspergillus flavus) of the same compound?
Answer: > 200 µg/mL

Question: Which Activity [12] does the source give for `Cc1cc(C(C)(C)C)c(O)c(C(C)(C)C)c1` here?
Answer: 60.9%

Question: What about the Activity [20] of the same compound?
Answer: 2.21 mMequiv

Question: What about the Activity [24] of the same compound?
Answer: Active

Question: What about the Activity [21] of the same compound?
Answer: 90.1%

Question: What about the Activity [22] of the same compound?
Answer: 80.9%

Question: And the Activity [23]?
Answer: 71.7%
